Read-outs that look alike come from different tables or passages of the source.
Molecular target: Ba/F3 V617F cells (Homo sapiens, UniProt O60674, V617F, cells depend on it)
Experiment: Proliferation assay (Cell Titer-Glo, 72 h) utilizing Ba/F3 V617F cells
Format: cell-based, mouse
Method: Ba/F3 V617F cells are maintained and plated in RPMI with 10% FBS. Plating density for these cells is 1×10^5 cells/mL.
The cells were resuspended in a corresponding medium at a required cell density (see above). 100μ of cell suspension was added to each well of a flat bottom 96 well white plate. The compound was serially diluted in DMSO from 5 mM in 3-fold dilutions, and then diluted 1:250 in the RPMI 1640 medium containing 5% FBS and pen/strep. 100 μL of resulting 2× compound solution was added per well in duplicate and the cells were allowed to proliferate for 72 hours at 37° C.
Proliferation was measured using Cell Titer-Glo. The substrate was thawed and allowed to come to ambient temperature. After removal of top 100 μL of medium from each well, 100 μL of the premixed Cell Titer-Glo reagent was added to each well. The plates were mixed on an orbital shaker for three minutes to induce lysis and incubated at ambient temperature for an additional five minutes to allow the signal to equilibrate. The Luminescence was read on the Wallac Plate Reader.
The results of the ability of the compounds of the invention to inhibit JAK2 activity, when tested in the above assay utilizing Ba/F3 V617F cells, are shown in the following Tables 2-3 wherein the level of activity (i.e., the IC50) for each compound is indicated in Tables 2-3. The compound numbers in Tables 2-3 refers to the compounds disclosed herein as being prepared by the methods disclosed herein: […]

[1] = Ba/F3 V617F cells, proliferation, level of activity to inhibit JAK2, read-out: IC50 (the source's name)
[2] = Ba/F3 V617F cells, proliferation, level of activity given as class symbol, read-out: IC50 (the source's name)
[3] = inhibition of JAK2 activity, proliferation of Ba/F3 V617F cells, read-out: IC50 (the source's name)

Ba/F3 V617F cells, sequence (O60674 whole entry V617F): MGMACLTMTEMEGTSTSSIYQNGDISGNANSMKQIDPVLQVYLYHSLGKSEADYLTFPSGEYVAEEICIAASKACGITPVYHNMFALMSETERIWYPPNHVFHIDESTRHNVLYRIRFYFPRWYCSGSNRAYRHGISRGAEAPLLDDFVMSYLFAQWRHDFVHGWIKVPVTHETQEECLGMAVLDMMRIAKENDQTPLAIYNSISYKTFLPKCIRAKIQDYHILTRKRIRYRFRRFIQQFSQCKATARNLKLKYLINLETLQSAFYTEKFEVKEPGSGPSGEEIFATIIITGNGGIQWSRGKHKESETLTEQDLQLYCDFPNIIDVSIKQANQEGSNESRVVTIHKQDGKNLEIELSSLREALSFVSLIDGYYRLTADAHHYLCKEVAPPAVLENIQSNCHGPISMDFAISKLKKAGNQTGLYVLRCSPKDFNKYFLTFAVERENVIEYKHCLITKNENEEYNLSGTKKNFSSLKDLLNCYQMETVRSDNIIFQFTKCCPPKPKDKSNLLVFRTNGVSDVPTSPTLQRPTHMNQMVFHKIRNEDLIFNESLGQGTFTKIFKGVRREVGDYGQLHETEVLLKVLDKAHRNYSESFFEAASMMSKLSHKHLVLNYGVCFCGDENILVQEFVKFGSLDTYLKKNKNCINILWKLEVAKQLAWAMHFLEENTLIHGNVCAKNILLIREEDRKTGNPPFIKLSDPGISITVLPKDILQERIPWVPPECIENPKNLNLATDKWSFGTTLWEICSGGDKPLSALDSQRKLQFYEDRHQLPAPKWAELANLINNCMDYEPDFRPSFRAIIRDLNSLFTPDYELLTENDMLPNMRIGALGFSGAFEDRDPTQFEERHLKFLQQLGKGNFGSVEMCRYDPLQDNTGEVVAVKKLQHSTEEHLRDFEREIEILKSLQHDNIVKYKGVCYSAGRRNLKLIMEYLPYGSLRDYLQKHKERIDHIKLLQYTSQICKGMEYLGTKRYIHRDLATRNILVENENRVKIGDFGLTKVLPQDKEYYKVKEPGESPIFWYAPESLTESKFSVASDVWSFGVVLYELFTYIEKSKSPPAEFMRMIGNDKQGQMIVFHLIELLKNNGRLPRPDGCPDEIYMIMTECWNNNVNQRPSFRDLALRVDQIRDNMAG

Row | GI50 [1] [µM] | GI50 [2] [µM] | Structure (SMILES) | also measured
1 | < 1 |  | Cc1cc(Nc2nccc(-c3ccc(N(C)C)nc3)n2)ccc1N1CC2(C)CN(C)CC(C)(C1)C2 [compound 76, 4-(6-(dimethylamino)pyridin-3-yl)-N-(3-methyl-4-(1,5,7-trimethyl-3,7-diazabicyclo[3.3.1]nonan-3-yl)phenyl)pyrimidin-2-amine] | 
2 | < 1 |  | Cc1cc(Nc2nccc(-c3cncc(S(C)(=O)=O)c3)n2)ccc1N1C[C@@H]2C[C@H]1CN2C [compound 95, 4-(5-(methyl)sulfonylpyridin-3-yl)-N-(3-methyl-4-((1S,4S)-5-methyl-2,5-diazabicyclo[2.2.1]heptan-2-yl)phenyl)pyrimidin-2-amine] | 
3 |  | < 1 | COCCN(C)c1ccc(-c2ccnc(Nc3ccc(N4CC5(C)CN(C)CC(C)(C4)C5)c(C)c3)n2)cn1 [compound 221, 4-(6-(2-methoxyethyl)(methyl)aminopyridin-3-yl)-N-(3-methyl-4-(1,5,7-trimethyl-3,7-diazabicyclo[3.3.1]nonan-3-yl)phenyl)pyrimidin-2-amine] | 
4 |  | < 1 | Cc1cc(Nc2nccc(-c3ccc4c(c3)OC(C)(C)C(=O)N4)n2)ccc1N1CCN2C(C1)[C@H]1CC[C@@H]2C1 (stereo partly drawn) [compound 244, 4-(2,2-dimethyl-3-oxo-3,4-dihydro-2H-benzo[b][1,4]oxazin-7-yl)-N-(3-methyl-4-((6R,9S)-6,9-methanooctahydro-1H-pyrido[1,2-a]pyrazin-2-yl)phenyl)pyrimidin-2-amine] | 
5 | 1 to 10 |  | CN1C2CCC1CN(c1ccc(Nc3nccc(-c4ccc(NS(C)(=O)=O)nc4)n3)cc1)C2 [compound 156, 4-(6-(methylsulfonylamino)pyridin-3-yl)-N-(4-(8-methyl-3,8-diazabicyclo[3.2.1]octan-3-yl)phenyl)pyrimidin-2-amine] | 
6 | < 1 |  | Cc1cc(Nc2nccc(-c3cnn(-c4ccc(F)cc4)c3)n2)ccc1N1C[C@@H]2C[C@H]1CN2C [compound 109, 4-(1-(4-fluorophenyl)-1H-pyrazol-4-yl)-N-(3-methyl-4-((1S,4S)-5-methyl-2,5-diazabicyclo[2.2.1]heptan-2-yl)phenyl)pyrimidin-2-amine] | 
7 |  | < 1 | CN1C[C@@H]2C[C@H]1CN2c1ccc(Nc2nccc(-c3cnc4c(c3)OC(C)(C)C(=O)N4)n2)cc1Cl [compound 248, 4-(2,2-dimethyl-3-oxo-3,4-dihydro-2H-pyrido[3,2-b][1,4]oxazin-7-yl)-N-(3-chloro-4-((1S,4S)-5-methyl-2,5-diazabicyclo[2.2.1]heptan-2-yl)phenyl)pyrimidin-2-amine] | 
8 | 1 to 10 |  | Cc1cc(Nc2nccc(-c3ccc(N4C[C@@H]5C[C@H]4CN5C)nc3)n2)ccc1N1CCN(C)CC1 [compound 12, 4-(6-((1S,4S)-5-methyl-2,5-diazabicyclo-[2.2.1]-heptan-2-yl)pyridin-3-yl)-N-(3-methyl-4-(4-methyl-piperazin-1-yl)phenyl)-pyrimidin-2-amine] | 
9 | < 1 |  | CCNC(=O)N1C[C@@H]2C[C@H]1CN2c1ccc(Nc2nccc(-c3ccc(N4CCOCC4)nc3)n2)cc1C [compound 26, 4-(6-(morpholin-4-yl)pyridin-3-yl)-N-(3-methyl-4-((1S,4S)-5-((ethylamino)carbonyl)-2,5-diazabicyclo[2.2.1]heptan-2-yl)phenyl)pyrimidin-2-amine] | 
10 |  | < 1 | Cc1cc(Nc2nccc(-c3cnc(N)c(CCCC(=O)OC(C)C)c3)n2)ccc1N1C[C@@H]2C[C@H]1CN2C [compound 253, 4-(5-(1-methylethoxy)carbonylpropyl-6-aminopyridin-3-yl)-N-(3-methyl-4-((1S,4S)-5-methyl-2,5-diazabicyclo[2.2.1]heptan-2-yl)phenyl)pyrimidin-2-amine] | 
11 | < 1 |  | Cc1cc(Nc2nccc(-c3cnc4[nH]ccc4c3)n2)ccc1N1C[C@@H]2C[C@H]1CN2CC(F)(F)F [compound 34, 4-(1H-pyrrolo[2,3-b]pyridin-5-yl)-N-(3-methyl-4-((1S,4S)-5-(2,2,2-trifluoroethyl)-2,5-diazabicyclo[2.2.1]heptan-2-yl)phenyl)pyrimidin-2-amine] | 
12 | < 1 |  | CCC(=O)N1C[C@@H]2C[C@H]1CN2c1ccc(Nc2nccc(-c3ccc(N)nc3)n2)cc1C [compound 148, 4-(6-aminopyridin-3-yl)-N-(3-methyl-4-((1S,4S)-5-ethylcarbonyl-2,5-diazabicyclo[2.2.1]heptan-2-yl)phenyl)pyrimidin-2-amine] | 
13 | < 1 |  | Cc1cc(Nc2nccc(-c3ccc4nccn4c3)n2)ccc1N1C[C@@H]2C[C@H]1CN2C [compound 103, 4-(imidazo[1,2-a]pyridin-6-yl)-N-(3-methyl-4-((1S,4S)-5-methyl-2,5-diazabicyclo[2.2.1]heptan-2-yl)phenyl)pyrimidin-2-amine] | 
14 |  | < 1 | Cc1cc(Nc2nccc(-c3ccc(N4CCOCC4)nc3)n2)ccc1N1CCN2C(C1)[C@H]1CC[C@@H]2C1 (stereo partly drawn) [compound 245, 4-(6-(morpholin-4-yl)pyridin-3-yl)-N-(3-methyl-4-((6R,9S)-6,9-methanooctahydro-1H-pyrido[1,2-a]pyrazin-2-yl)phenyl)pyrimidin-2-amine] | 
15 |  |  | Cc1cc(Nc2nccc(-c3ccc4c(ccn4-c4ccncc4)c3)n2)cnc1N1C[C@@H]2C[C@H]1CN2C [compound 236, 4-(1-(pyridin-4-yl)-1H-indol-5-yl)-N-(5-methyl-6-((1S,4S)-5-methyl-2,5-diazabicyclo[2.2.1]heptan-2-yl)pyridin-3-yl)pyrimidin-2-amine] | GI50 [3]: < 1 µM
16 | < 1 |  | CCN1C[C@@H]2C[C@H]1CN2c1ccc(Nc2nccc(-c3cnc4c(c3)OC(C)(C)C(=O)N4)n2)cc1C [compound 30, 4-(2,2-dimethyl-3-oxo-3,4-dihydro-2H-pyrido[3,2-b][1,4]oxazin-7-yl)-N-(3-methyl-4-((1S,4S)-5-ethyl-2,5-diazabicyclo[2.2.1]heptan-2-yl)phenyl)pyrimidin-2-amine] | 
17 |  | 1 to 10 | Cc1cc(Nc2nccc(-c3ccc(N4CCOCC4)nc3)n2)ccc1N1C[C@@H]2C[C@H]1CN2C(=N)N [compound 199, 4-(6-(morpholin-4-yl)pyridin-3-yl)-N-(3-methyl-4-((1S,4S)-5-amidino-2,5-diazabicyclo[2.2.1]heptan-2-yl)phenyl)pyrimidin-2-amine] | 
18 |  | < 1 | Cc1cc(Nc2nccc(-c3ccc4c(c3)OC(C)(C)C(=O)N4)n2)ccc1N1C[C@@H]2C[C@H]1CN2C [compound 240, 4-(2,2-dimethyl-3-oxo-3,4-dihydro-2H-benzo[b][1,4]oxazin-7-yl)-N-(3-methyl-4-((1S,4S)-5-methyl-2,5-diazabicyclo[2.2.1]heptan-2-yl)phenyl)pyrimidin-2-amine] | 
19 | 1 to 10 |  | CN1C[C@@H]2C[C@H]1CN2c1ccc(Nc2nccc(-c3ccc(NC(=O)CN4CCOCC4)nc3)n2)cc1F [compound 143, 4-(6-(2-(morpholin-4-yl)acetamido)pyridin-3-yl)-N-(3-fluoro-4-((1S,4S)-5-methyl-2,5-diazabicyclo[2.2.1]heptan-2-yl)phenyl)pyrimidin-2-amine] | 
20 |  | < 1 | Cc1cc(Nc2nccc(-c3ccc(N4C[C@@H]5C[C@H]4CO5)nc3)n2)ccc1N1C[C@@H]2C[C@H]1CN2C [compound 215, 4-(6-((1S,4S)-2-oxa-5-azabicyclo[2.2.1]heptan-5-yl)pyridin-3-yl)-N-(3-methyl-4-((1S,4S)-5-methyl-2,5-diazabicyclo[2.2.1]heptan-2-yl)phenyl)pyrimidin-2-amine] | 
21 |  | < 1 | CC1(C)Oc2cc(-c3ccnc(Nc4ccc(C5CC6CC5N(S(C)(=O)=O)C6)cc4)n3)cnc2NC1=O (stereo not shown) [compound 228, 4-(2,2-dimethyl-3-oxo-3,4-dihydro-2H-pyrido[3,2-b][1,4]oxazin-7-yl)-N-(4-(2-methylsulfonyl-2-azabicyclo[2.2.1]heptan-6-yl)phenyl)pyrimidin-2-amine] | 
22 | < 1 |  | Cc1cc(Nc2nccc(-c3ccc(C(C)(C)C)cc3)n2)ccc1N1C[C@@H]2C[C@H]1CN2C [compound 46, 4-(4-(1,1-dimethylethyl)phenyl)-N-(3-methyl-4-((1S,4S)-5-methyl-2,5-diazabicyclo[2.2.1]heptan-2-yl)phenyl)pyrimidin-2-amine] | 
23 |  |  | Cc1cc(-c2ccnc(Nc3ccc(N4C[C@@H]5C[C@H]4CN5C)nc3)n2)cnc1N1CCOCC1 [compound 58, 4-(5-methyl-6-(morpholin-4-yl)pyridin-3-yl)-N-(6-((1S,4S)-5-methyl-2,5-diazabicyclo[2.2.1]heptan-2-yl)pyridin-3-yl)pyrimidin-2-amine] | GI50 [3]: 1 to 10 µM
24 | < 1 |  | Cc1cc(Nc2nccc(-c3cnc4c(c3)OC3(CCC3)C(=O)N4)n2)ccc1N1C[C@@H]2C[C@H]1CN2C [compound 31, 4-(3′-oxo-3,4′-dihydrospiro[cyclobutane-1,2′-pyrido[3,2-b][1,4]oxazine]-7-yl)-N-(3-methyl-4-((1S,4S)-5-methyl-2,5-diazabicyclo[2.2.1]heptan-2-yl)phenyl)pyrimidin-2-amine] | 
25 |  | < 1 | Cc1cc(Nc2nccc(-c3cnc4c(c3)OC(C)(C)C(=O)N4)n2)ccc1N1C[C@@H]2C[C@H]1CN2C(C)C [compound 246, 4-(2,2-dimethyl-3-oxo-3,4-dihydro-2H-pyrido[3,2-b][1,4]oxazin-7-yl)-N-(3-methyl-4-((1S,4S)-5-(1-methylethyl)-2,5-diazabicyclo[2.2.1]heptan-2-yl)phenyl)pyrimidin-2-amine] | 

Reference: patent US9624229B2, “Pyrimidine-2-amine compounds and their use as inhibitors of JAK kinases” (Rigel Pharmaceuticals, Inc., priority 2008, dated 2017)
